Results reported in publication PMC10296061, “Inhibition of the Mitochondrial Carnitine/Acylcarnitine Carrier by Itaconate through Irreversible Binding to Cysteine 136: Possible Pathophysiological Implications” (Biomolecules, 2023).
Read-outs that look alike come from different tables or passages of the source.

Target: T1, recombinant CAC (WT) (Rattus norvegicus, UniProt P97521)
T1 construct: made in house; host or cells: E. coli C0214
T1 sequence (P97521 1-301): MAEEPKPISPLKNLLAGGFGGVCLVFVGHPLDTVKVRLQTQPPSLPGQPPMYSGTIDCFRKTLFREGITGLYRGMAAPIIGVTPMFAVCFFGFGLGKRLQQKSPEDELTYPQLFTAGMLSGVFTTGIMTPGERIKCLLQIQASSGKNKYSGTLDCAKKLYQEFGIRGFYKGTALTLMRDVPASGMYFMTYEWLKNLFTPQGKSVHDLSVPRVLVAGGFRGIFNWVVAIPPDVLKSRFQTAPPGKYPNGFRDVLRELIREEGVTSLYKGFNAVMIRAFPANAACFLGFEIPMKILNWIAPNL
Experiment: [3H]carnitine/carnitine antiport in proteoliposomes reconstituted with recombinant WT CAC
Type: biochemical
Method: As previously described, the pMW7-WTratCAC recombinant plasmid was used for over-expressing the rat CAC [22]. The overlap extension method was used to introduce the mutations; in the main time, NdeI and HindIII restriction sites were also added using appropriate primers. The PCR products were purified by the QIAEX II Gel Extraction Kit (QIAGEN) and digested with NdeI and HindIII and then ligated into the pMW7. All mutations were verified by DNA sequencing. The resulting plasmid constructs were transformed into E. coli C0214. Overexpression, inclusion body fraction preparation, and purification of the CAC proteins were performed as previously described.
As previously described, recombinant CAC (WT and mutants) and ORC1 proteins were used for proteoliposome formation. For experiments with native CAC, ORC1, or ANT proteins, rat liver mitochondria, or HeLa cell mitochondria, the latter for the CAC alone, were first purified using the standard procedure of cell disruption and differential centrifugation. Then proteins were extracted using 3% Triton X-100 and reconstituted as described for the recombinant proteins. The concentration of intraliposomal carnitine and ornithine was 15 mM and 30 mM, respectively, in all samples.
To test the transport activity of the CAC, 550 μL of proteoliposomes was passed through a Sephadex G-75 column to remove the external substrate. Six hundred μL of the turbid eluate was collected, divided into samples of 100 μL each, and used for transport measurement by the inhibitor-stop method. Transport was started by adding 0.1 mM [^3H]carnitine ([^3H]ornitine or [^3H]ATP) to proteoliposome samples and stopped with 1.5 mM NEM (N-ethylmaleimide) at the indicated time interval. In the control samples, NEM was added with the labeled substrate at time zero. Transport rates were measured in 10 min, i.e., within the initial linear range of the time course, at 25 °C. After terminating the transport reaction, the external substrate was removed by chromatography on the Sephadex G-75 column, and the intraliposomal radioactivity was measured. The experimental values were corrected by subtracting the controls.
Figure 1 Effect of itaconate on the native and recombinant mitochondrial carnitine/acylcarnitine (CAC). Dose–response analysis for itaconate inhibition was carried out using proteoliposomes reconstituted with native (○) or recombinant (●) CAC carriers. After 10 min of itaconate incubation, transport activity was started by adding 0.1 mM [^3H]carnitine and stopped after 10 min as described in Section 2. Percent of residual activity with respect to the control, without itaconate treatment, was reported. The values are the means ± SD from three independent experiments.
Figure 2 Effect of different pH on the inhibition of CAC protein by itaconate. (a) Proteoliposomes reconstituted with the recombinant CAC were incubated at various pHs (range pH 6.5–8.5) for 10 min with 10 mM itaconate. (b) Dose–response analysis of inhibition by itaconate of the recombinant CAC at pH 6.5. was performed. Proteoliposomes were incubated for 10 min at pH 6.5 with itaconate at the indicated concentrations. In both (a,b), the transport activity was measured for 10 min by adding to proteoliposomes 0.1 mM [^3H]carnitine.

C=C(CC(=O)O)C(=O)O [itaconate]
reversal of inhibition by the reducing agent DTE (10 mM itaconate pre-incubation 10 min, 25 mM DTE, transport 30 min): not able to reverse the inhibition | inhibition at 10000 µM (10 mM itaconate, 10 min, pH 6.5, read-out: inhibition of transport): ~80% | inhibition of transport (10 mM itaconate, 10 min, pH 8.0 and pH 8.5): Virtually no inhibition | inhibition at 10000 µM (10 mM itaconate, pH 7.0, 10 min, without carnitine, unreacted compound removed by G-75, read-out: inhibition compared to the control): ~55% | type of inhibition (WT, double reciprocal plot): non-competitive inhibition | Ki (pH 7.0, 10 mM itaconate, Lineweaver-Burk plot): 14 ± 2.6 mM | IC50 (recombinant CAC, 10 min incubation, 0.1 mM [3H]carnitine, pH 7.0, read-out: IC50 for itaconate inhibition of transport): 8.4 ± 2.9 mM | IC50 (recombinant WT CAC, pH 6.5, 10 min incubation, read-out: IC50 for inhibition of transport at pH 6.5): 3.8 ± 1 mM
